Test results reported in PubChem BioAssay AID1259407 (Chemical Carcinogenesis Research Information System (CCRIS), 2018).
Activity calls are given as the source filed them. The rule behind the calls is not given here.

Tested on: CCRIS mutagenicity, Ames/micronucleus/aberration tests
Experiment: CCRIS mutagenicity studies
[1] = Test System: AMES SALMONELLA TYPHIMURIUM, Strain/Indicator: TA98, Metabolic Activation: NONE, Method: STANDARD PLATE
[2] = Test System: AMES SALMONELLA TYPHIMURIUM, Strain/Indicator: TA98(1,8-DNP6), Metabolic Activation: NONE, Method: STANDARD PLATE
[3] = Test System: AMES SALMONELLA TYPHIMURIUM, Strain/Indicator: TA98, Metabolic Activation: RAT, LIVER, S-9, AROCLOR 1254, Method: STANDARD PLATE
[4] = Test System: AMES SALMONELLA TYPHIMURIUM, Strain/Indicator: TA100, Metabolic Activation: NONE, Method: STANDARD PLATE
[5] = Test System: AMES SALMONELLA TYPHIMURIUM, Strain/Indicator: TA98, Metabolic Activation: S-9, Method: STANDARD PLATE
[6] = Test System: AMES SALMONELLA TYPHIMURIUM, Strain/Indicator: TA100, Metabolic Activation: S-9, Method: STANDARD PLATE

With ClCc1cccc(CCl)c1 the mutagenic call [1] was “inactive; negative”.

With Nc1cccc(N)n1 the mutagenic call (Test System: AMES SALMONELLA TYPHIMURIUM, Strain/Indicator: TA98, Metabolic Activation: NONE, Method: PREINCUBATION) was “inactive; negative”, the mutagenic call (Test System: AMES SALMONELLA TYPHIMURIUM, Strain/Indicator: TA98, Metabolic Activation: RAT, LIVER, S-9, PCB, Method: PREINCUBATION) was “active; positive” and the mutagenic call (Test System: AMES SALMONELLA TYPHIMURIUM, Strain/Indicator: TA98, Metabolic Activation: RAT, LIVER, S-9, PHENOBARBITAL AND BETA-NAPHTHOFLAVONE, Method: PREINCUBATION) was “inactive; negative”. For the same compound, the mutagenic call (Test System: AMES SALMONELLA TYPHIMURIUM, Strain/Indicator: TA100, Metabolic Activation: NONE, Method: PREINCUBATION) was “inactive; negative”, the mutagenic call (Test System: AMES SALMONELLA TYPHIMURIUM, Strain/Indicator: TA100, Metabolic Activation: RAT, LIVER, S-9, PCB, Method: PREINCUBATION) was “inactive; negative” and the mutagenic call (Test System: AMES SALMONELLA TYPHIMURIUM, Strain/Indicator: TA100, Metabolic Activation: RAT, LIVER, S-9, PHENOBARBITAL AND BETA-NAPHTHOFLAVONE, Method: PREINCUBATION) was “inactive; negative”. For the same compound, the mutagenic call (Test System: AMES SALMONELLA TYPHIMURIUM, Strain/Indicator: TA1535, Metabolic Activation: NONE, Method: PREINCUBATION) was “inactive; negative”, the mutagenic call (Test System: AMES SALMONELLA TYPHIMURIUM, Strain/Indicator: TA1535, Metabolic Activation: RAT, LIVER, S-9, PHENOBARBITAL AND BETA-NAPHTHOFLAVONE, Method: PREINCUBATION) was “inactive; negative” and the mutagenic call (Test System: AMES SALMONELLA TYPHIMURIUM, Strain/Indicator: TA1537, Metabolic Activation: RAT, LIVER, S-9, PHENOBARBITAL AND BETA-NAPHTHOFLAVONE, Method: PREINCUBATION) was “active; positive”. For the same compound, the mutagenic call (Test System: E. COLI, Strain/Indicator: WP2UVRA, Metabolic Activation: NONE, Method: PREINCUBATION) was “inactive; negative” and the mutagenic call (Test System: E. COLI, Strain/Indicator: WP2UVRA, Metabolic Activation: RAT, LIVER, S-9, PHENOBARBITAL AND BETA-NAPHTHOFLAVONE, Method: PREINCUBATION) was “inactive; negative”.

With O=[N+]([O-])c1ccc2c3c4c(cccc4c4ccccc4c13)C1OC21 (configuration not stated) the mutagenic call [2] was “inactive; negative”, the mutagenic call (Test System: AMES SALMONELLA TYPHIMURIUM, Strain/Indicator: TA98(1,8-DNP6), Metabolic Activation: RAT, LIVER, S-9, AROCLOR 1254, Method: STANDARD PLATE) was “inactive; negative” and the mutagenic call (Test System: AMES SALMONELLA TYPHIMURIUM, Strain/Indicator: TA98(NR), Metabolic Activation: NONE, Method: STANDARD PLATE) was “inactive; negative”. For the same compound, the mutagenic call (Test System: AMES SALMONELLA TYPHIMURIUM, Strain/Indicator: TA98(NR), Metabolic Activation: RAT, LIVER, S-9, AROCLOR 1254, Method: STANDARD PLATE) was “inactive; negative”, the mutagenic call [1] was “active; positive” and the mutagenic call [3] was “active; positive”.

CCOP(=S)(OCC)Oc1cnc2ccccc2n1 was tested, and the mutagenic call [1] was “inactive; negative”, the mutagenic call (Test System: AMES SALMONELLA TYPHIMURIUM, Strain/Indicator: TA98, Metabolic Activation: S-9, NADPH GENERATING SYSTEM, Method: STANDARD PLATE) was “inactive; negative” and the mutagenic call (Test System: AMES SALMONELLA TYPHIMURIUM, Strain/Indicator: TA102, Metabolic Activation: NONE, Method: STANDARD PLATE) was “inactive; negative”. The mutagenic call (Test System: AMES SALMONELLA TYPHIMURIUM, Strain/Indicator: TA102, Metabolic Activation: S-9, NADPH GENERATING SYSTEM, Method: STANDARD PLATE) was “inactive; negative”, the mutagenic call (Test System: AMES SALMONELLA TYPHIMURIUM, Strain/Indicator: TA1535, Metabolic Activation: NONE, Method: STANDARD PLATE) was “inactive; negative” and the mutagenic call (Test System: AMES SALMONELLA TYPHIMURIUM, Strain/Indicator: TA1535, Metabolic Activation: S-9, NADPH GENERATING SYSTEM, Method: STANDARD PLATE) was “inactive; negative”. The mutagenic call (Test System: AMES SALMONELLA TYPHIMURIUM, Strain/Indicator: TA1537, Metabolic Activation: NONE, Method: STANDARD PLATE) was “inactive; negative” and the mutagenic call (Test System: AMES SALMONELLA TYPHIMURIUM, Strain/Indicator: TA1537, Metabolic Activation: S-9, NADPH GENERATING SYSTEM, Method: STANDARD PLATE) was “inactive; negative”.

CCCCN(N=O)C(=O)OCC was tested, and the mutagenic call (Test System: AMES SALMONELLA TYPHIMURIUM, Strain/Indicator: TA98, Metabolic Activation: RAT, LIVER, S-9, KC500 OR PHENOBARBITAL, Method: LIQUID SUSPENSION) was “active; positive” and the mutagenic call (Test System: AMES SALMONELLA TYPHIMURIUM, Strain/Indicator: TA100, Metabolic Activation: RAT, LIVER, S-9, KC500 OR PHENOBARBITAL, Method: LIQUID SUSPENSION) was “active; positive”.

With [O-][N+](=Nc1ccc(Cl)c(Cl)c1)c1ccc(Cl)c(Cl)c1 the mutagenic call (Test System: AMES SALMONELLA TYPHIMURIUM, Strain/Indicator: TA97, Metabolic Activation: NONE, Method: STANDARD PLATE) was “inactive; negative”, the mutagenic call (Test System: AMES SALMONELLA TYPHIMURIUM, Strain/Indicator: TA97, Metabolic Activation: RAT, LIVER, S-9, AROCLOR 1254, Method: STANDARD PLATE) was “inactive; negative” and the mutagenic call [1] was “inactive; negative”. For the same compound, the mutagenic call [3] was “inactive; negative”, the mutagenic call [4] was “inactive; negative” and the mutagenic call (Test System: AMES SALMONELLA TYPHIMURIUM, Strain/Indicator: TA100, Metabolic Activation: RAT, LIVER, S-9, AROCLOR 1254, Method: STANDARD PLATE) was “inactive; negative”. The mutagenic call (Test System: AMES SALMONELLA TYPHIMURIUM, Strain/Indicator: TA104, Metabolic Activation: NONE, Method: STANDARD PLATE) was “inactive; negative”, the mutagenic call (Test System: AMES SALMONELLA TYPHIMURIUM, Strain/Indicator: TA104, Metabolic Activation: RAT, LIVER, S-9, AROCLOR 1254, Method: STANDARD PLATE) was “inactive; negative” and the mutagenic call (Test System: CHINESE HAMSTER OVARY, Strain/Indicator: CHO-K1-BH4 (HGPRT), Metabolic Activation: NONE) was “inactive; negative”. The mutagenic call (Test System: CHINESE HAMSTER OVARY, Strain/Indicator: CHO-K1-BH4 (HGPRT), Metabolic Activation: RAT, LIVER, S-9, AROCLOR 1254) was “inactive; negative”.

In the case of Nc1ccc(-c2ccc(N)c([N+](=O)[O-])c2)cc1, the mutagenic call [2] was “active; positive”, the mutagenic call (Test System: AMES SALMONELLA TYPHIMURIUM, Strain/Indicator: TA98(1,8-DNP6), Metabolic Activation: S-9, Method: STANDARD PLATE) was “active; positive” and the mutagenic call [1] was “active; positive”. The mutagenic call [5] was “active; positive”, the mutagenic call [4] was “inactive; negative” and the mutagenic call [6] was “active; positive”.

In the case of N#Cc1ccc(/C=C/c2ccc([N+](=O)[O-])cc2)cc1, the mutagenic call (Test System: AMES SALMONELLA TYPHIMURIUM, Strain/Indicator: TA98 (NR), Metabolic Activation: NONE, Method: STANDARD PLATE) was “active; positive”, the mutagenic call (Test System: AMES SALMONELLA TYPHIMURIUM, Strain/Indicator: TA98 (NR), Metabolic Activation: S-9, Method: STANDARD PLATE) was “active; positive” and the mutagenic call (Test System: AMES SALMONELLA TYPHIMURIUM, Strain/Indicator: TA98, Metabolic Activation: RAT, LIVER, S-9, AROCLOR, Method: STANDARD PLATE) was “active; positive”. The mutagenic call [5] was “active; positive”, the mutagenic call (Test System: AMES SALMONELLA TYPHIMURIUM, Strain/Indicator: TA100 (NR), Metabolic Activation: NONE, Method: STANDARD PLATE) was “inactive; negative” and the mutagenic call (Test System: AMES SALMONELLA TYPHIMURIUM, Strain/Indicator: TA100(NR), Metabolic Activation: S-9, Method: STANDARD PLATE) was “inactive; negative”. The mutagenic call (Test System: AMES SALMONELLA TYPHIMURIUM, Strain/Indicator: TA100, Metabolic Activation: RAT, LIVER, S-9, AROCLOR, Method: STANDARD PLATE) was “active; positive” and the mutagenic call [6] was “active; positive”.
